Reference: PMC4761420 (2015)

System: 5′-TAMRA-AM1A (RNA, riboswitch) GAGGGUGGAACCGCGCUUCGGCGUCCCUC
Test: fluorescence titration
Conditions: 50 mM NaCl; 50 mM MOPS pH 6.5, 0.01 mM EDTA; 100 nM RNA; apparent

**Q.** NCCCCNCCCN was tested. Which Kd did it give?
**A.** 54 ± 12 µM
